Test results taken from publication PMC12775434, “Ultra-large virtual screening unveils potent agonists of the neuromodulatory orphan receptor GPR139” (Nature Communications, 2025).
“And” between values parts separate entries of the source, which are not always exact repeats. Identical values can stand only once. Like-named read-outs stand apart in the source and are kept apart here.

Molecular target: T1, GPR139 (Homo sapiens, UniProt Q6DWJ6)
T1 sequence (Q6DWJ6 1-353): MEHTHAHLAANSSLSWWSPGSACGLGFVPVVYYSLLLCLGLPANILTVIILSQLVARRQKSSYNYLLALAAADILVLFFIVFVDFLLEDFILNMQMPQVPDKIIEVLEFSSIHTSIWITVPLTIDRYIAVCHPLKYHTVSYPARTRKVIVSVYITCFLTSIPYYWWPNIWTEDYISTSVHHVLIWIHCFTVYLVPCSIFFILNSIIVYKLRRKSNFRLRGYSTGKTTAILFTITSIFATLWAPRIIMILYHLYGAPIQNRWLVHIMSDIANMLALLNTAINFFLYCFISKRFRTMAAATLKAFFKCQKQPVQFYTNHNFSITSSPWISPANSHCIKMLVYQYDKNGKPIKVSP
Assay: Ca2+ mobilization assay, agonist mode, stable GPR139-CHOk1 cell line
Format: cell-based
Conditions: for Emax: normalized to Lundbeck Cmp 1a, read-out: Emax (%), Ca2+ mobilization
In short: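 Agonist activity of compounds is assessed in stably transfected CHO-K1 cells using the calcium dye Fluo-4 at 37 °C in HEPES-buffered HBSS (pH 7.4). Efficacy is expressed relative to the reference agonist Lundbeck Cmp 1a, set as 100%.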

[1] = Supplementary Table 7, enantiopure compounds, read-out: pEC50, Ca2+ mobilization (converted)
[2] = log [Compound] M -8.5, individual replicates
[3] = log [Compound] M -9.0, individual replicates
[4] = log [Compound] M -12.0, individual replicates
[5] = log [compound] M -4.5, individual replicates
[6] = log [compound] M -5.0, individual replicates
[7] = log [compound] M -5.5, individual replicates
[8] = log [compound] M -6.0, individual replicates
[9] = log [compound] M -6.5, individual replicates
[10] = log [compound] M -7.0, individual replicates
[11] = log [compound] M -7.5, individual replicates
[12] = log [compound] M -8.0, individual replicates

Cc1cscc1-c1nc(CC(=O)N[C@H](C)c2ccccc2)no1 [1.1(R)]
EC50 [1]: 316 nM
Emax (Supplementary Table 7): 112 ± 1%
Ca2+ signal (% of Cmp 1a) [2]: 12 % of Cmp 1a and 7 % of Cmp 1a and 3.33 % of Cmp 1a
Ca2+ signal (% of Cmp 1a) [3]: 9 % of Cmp 1a and 0.333 % of Cmp 1a and -1.33 % of Cmp 1a
Ca2+ signal (% of Cmp 1a) [4]: 0 % of Cmp 1a
Ca2+ signal (% of Cmp 1a) [5]: 101 % of Cmp 1a and 112 % of Cmp 1a and 116 % of Cmp 1a
Ca2+ signal (% of Cmp 1a) [6]: 100 % of Cmp 1a and 104 % of Cmp 1a and 97 % of Cmp 1a
Ca2+ signal (% of Cmp 1a) [7]: 97 % of Cmp 1a and 88 % of Cmp 1a and 90 % of Cmp 1a
Ca2+ signal (% of Cmp 1a) [8]: 74 % of Cmp 1a and 79 % of Cmp 1a and 77 % of Cmp 1a
Ca2+ signal (% of Cmp 1a) [9]: 50 % of Cmp 1a and 51 % of Cmp 1a and 65 % of Cmp 1a
Ca2+ signal (% of Cmp 1a) [10]: 32 % of Cmp 1a and 25 % of Cmp 1a and 37 % of Cmp 1a
Ca2+ signal (% of Cmp 1a) [11]: 15 % of Cmp 1a and 13 % of Cmp 1a and 16 % of Cmp 1a
Ca2+ signal (% of Cmp 1a) [12]: 9 % of Cmp 1a and 4.67 % of Cmp 1a and 8 % of Cmp 1a

Cc1cscc1-c1nc(CC(=O)N[C@@H](C)c2ccccc2)no1 [1.1(S)]
EC50 (GPR139-CHOk1, read-out: EC50, Ca2+ mobilization): 8 nM
Emax (Supplementary Table 7): 121 ± 11%
Ca2+ signal (% of Cmp 1a) [2]: 28 % of Cmp 1a and 50 % of Cmp 1a and 51 % of Cmp 1a
Ca2+ signal (% of Cmp 1a) [3]: 24 % of Cmp 1a and 31 % of Cmp 1a and 22 % of Cmp 1a
Ca2+ signal (% of Cmp 1a) [4]: 0 % of Cmp 1a
Ca2+ signal (% of Cmp 1a) [5]: 102 % of Cmp 1a and 114 % of Cmp 1a and 136 % of Cmp 1a
Ca2+ signal (% of Cmp 1a) [6]: 108 % of Cmp 1a and 117 % of Cmp 1a and 136 % of Cmp 1a
Ca2+ signal (% of Cmp 1a) [7]: 90 % of Cmp 1a and 125 % of Cmp 1a and 141 % of Cmp 1a
Ca2+ signal (% of Cmp 1a) [8]: 102 % of Cmp 1a and 120 % of Cmp 1a and 136 % of Cmp 1a
Ca2+ signal (% of Cmp 1a) [9]: 96 % of Cmp 1a and 104 % of Cmp 1a and 131 % of Cmp 1a
Ca2+ signal (% of Cmp 1a) [10]: 104 % of Cmp 1a and 95 % of Cmp 1a and 127 % of Cmp 1a
Ca2+ signal (% of Cmp 1a) [11]: 92 % of Cmp 1a and 77 % of Cmp 1a and 113 % of Cmp 1a
Ca2+ signal (% of Cmp 1a) [12]: 61 % of Cmp 1a and 62 % of Cmp 1a and 73 % of Cmp 1a

C[C@@H](NC(=O)CNC(=O)c1cccc(Cl)c1)c1ccccc1 [JNJ(R), reference compound]
EC50 [1]: 3160 nM
Emax (Supplementary Table 7): 99 ± 5%
Ca2+ signal (% of Cmp 1a) [2]: -4.33 % of Cmp 1a and 7 % of Cmp 1a and -3.33 % of Cmp 1a
Ca2+ signal (% of Cmp 1a) [3]: -1.33 % of Cmp 1a and 6 % of Cmp 1a and -7 % of Cmp 1a
Ca2+ signal (% of Cmp 1a) [4]: 0 % of Cmp 1a
Ca2+ signal (% of Cmp 1a) [5]: 84 % of Cmp 1a and 100 % of Cmp 1a and 82 % of Cmp 1a
Ca2+ signal (% of Cmp 1a) [6]: 66 % of Cmp 1a and 88 % of Cmp 1a and 60 % of Cmp 1a
Ca2+ signal (% of Cmp 1a) [7]: 49 % of Cmp 1a and 72 % of Cmp 1a and 33 % of Cmp 1a
Ca2+ signal (% of Cmp 1a) [8]: 28 % of Cmp 1a and 43 % of Cmp 1a and 16 % of Cmp 1a
Ca2+ signal (% of Cmp 1a) [9]: 13 % of Cmp 1a and 14 % of Cmp 1a and -2 % of Cmp 1a
Ca2+ signal (% of Cmp 1a) [10]: 4.33 % of Cmp 1a and 9 % of Cmp 1a and -10 % of Cmp 1a
Ca2+ signal (% of Cmp 1a) [11]: 11 % of Cmp 1a and 3.67 % of Cmp 1a and -10 % of Cmp 1a
Ca2+ signal (% of Cmp 1a) [12]: 5.33 % of Cmp 1a (2×) and -13 % of Cmp 1a

CC(NC(=O)CNC(=O)c1cccc(Cl)c1)c1ccccc1 (stereo not shown) [JNJ-63533054, reference compound]
Emax (Supplementary Table 4): 100 ± 2%
EC50 (Supplementary Table 4, read-out: pEC50, Ca2+ mobilization (converted)): 63.1 nM
EC50 [1]: 15.8 nM
Emax (Supplementary Table 7): 119 ± 6%
Ca2+ signal (% of Cmp 1a) (log [Compound] M -5.5, replicate experiments): 100 % of Cmp 1a
Ca2+ signal (% of Cmp 1a) (log [Compound] M -6.0, replicate experiments): 91 % of Cmp 1a and 96 % of Cmp 1a and 95 % of Cmp 1a
Ca2+ signal (% of Cmp 1a) (log [Compound] M -6.5, replicate experiments): 91 % of Cmp 1a and 78 % of Cmp 1a and 84 % of Cmp 1a
Ca2+ signal (% of Cmp 1a) (log [Compound] M -7.0, replicate experiments): 68 % of Cmp 1a and 62 % of Cmp 1a and 69 % of Cmp 1a
Ca2+ signal (% of Cmp 1a) (log [Compound] M -7.5, replicate experiments): 36 % of Cmp 1a and 26 % of Cmp 1a and 32 % of Cmp 1a
Ca2+ signal (% of Cmp 1a) (log [Compound] M -8.0, replicate experiments): 25 % of Cmp 1a and 21 % of Cmp 1a and 8 % of Cmp 1a
Ca2+ signal (% of Cmp 1a) (log [Compound] M -8.5, individual replicates, listed as JNJ (S)): 33 % of Cmp 1a and 17 % of Cmp 1a and 31 % of Cmp 1a
Ca2+ signal (% of Cmp 1a) (log [Compound] M -8.5, replicate experiments): 11 % of Cmp 1a and 1.8 % of Cmp 1a and -4.36 % of Cmp 1a
Ca2+ signal (% of Cmp 1a) (log [Compound] M -9.0, individual replicates, listed as JNJ (S)): 12 % of Cmp 1a and 6 % of Cmp 1a and 21 % of Cmp 1a
Ca2+ signal (% of Cmp 1a) (log [Compound] M -9.0, replicate experiments): 0 % of Cmp 1a
Ca2+ signal (% of Cmp 1a) [4]: 0 % of Cmp 1a
Ca2+ signal (% of Cmp 1a) (log [Compound] M = -5.5, individual replicate columns): 100 % of Cmp 1a
Ca2+ signal (% of Cmp 1a) (log [Compound] M = -6.0, individual replicate columns): 96 % of Cmp 1a and 95 % of Cmp 1a and 91 % of Cmp 1a
Ca2+ signal (% of Cmp 1a) (log [Compound] M = -6.5, individual replicate columns): 78 % of Cmp 1a and 84 % of Cmp 1a and 91 % of Cmp 1a
Ca2+ signal (% of Cmp 1a) (log [Compound] M = -7.0, individual replicate columns): 62 % of Cmp 1a and 69 % of Cmp 1a and 68 % of Cmp 1a
Ca2+ signal (% of Cmp 1a) (log [Compound] M = -7.5, individual replicate columns): 26 % of Cmp 1a and 32 % of Cmp 1a and 36 % of Cmp 1a
Ca2+ signal (% of Cmp 1a) (log [Compound] M = -8.0, individual replicate columns): 21 % of Cmp 1a and 8 % of Cmp 1a and 25 % of Cmp 1a
Ca2+ signal (% of Cmp 1a) (log [Compound] M = -8.5, individual replicate columns): 1.8 % of Cmp 1a and -4.36 % of Cmp 1a and 11 % of Cmp 1a
Ca2+ signal (% of Cmp 1a) (log [Compound] M = -9.0, individual replicate columns): 0 % of Cmp 1a
Ca2+ signal (% of Cmp 1a) (log [compound] M -4.5, individual replicates, listed as JNJ (S)): 119 % of Cmp 1a and 120 % of Cmp 1a and 108 % of Cmp 1a
Ca2+ signal (% of Cmp 1a) (log [compound] M -5.0, individual replicates, listed as JNJ (S)): 106 % of Cmp 1a and 110 % of Cmp 1a and 122 % of Cmp 1a
Ca2+ signal (% of Cmp 1a) (log [compound] M -5.5, individual replicates, listed as JNJ (S)): 100 % of Cmp 1a and 103 % of Cmp 1a and 143 % of Cmp 1a
Ca2+ signal (% of Cmp 1a) (log [compound] M -6.0, individual replicates, listed as JNJ (S)): 91 % of Cmp 1a and 107 % of Cmp 1a and 141 % of Cmp 1a
Ca2+ signal (% of Cmp 1a) (log [compound] M -6.5, individual replicates, listed as JNJ (S)): 93 % of Cmp 1a and 118 % of Cmp 1a and 122 % of Cmp 1a
Ca2+ signal (% of Cmp 1a) (log [compound] M -7.0, individual replicates, listed as JNJ (S)): 76 % of Cmp 1a and 120 % of Cmp 1a and 95 % of Cmp 1a
Ca2+ signal (% of Cmp 1a) (log [compound] M -7.5, individual replicates, listed as JNJ (S)): 65 % of Cmp 1a and 92 % of Cmp 1a and 71 % of Cmp 1a
Ca2+ signal (% of Cmp 1a) (log [compound] M -8.0, individual replicates, listed as JNJ (S)): 46 % of Cmp 1a and 57 % of Cmp 1a and 54 % of Cmp 1a
